According to patent publication US20130102593A1, “PYRROLIDINE COMPOUNDS WHICH INHIBIT BETA-SECRETASE ACTIVITY AND METHODS OF USE THEREOF” (priority 2008, published 2013):
Read-outs that look alike come from different tables or passages of the source.

System: Aβ production
Test: Cellular Aβ IC50 determination (memapsin 2 activity in a cellular assay of Aβ production)
Assay type: cell-based, Chinese hamster
Details: Cricetulus griseus, read-out: M2 IC50
Method: The potency of compounds against memapsin 2 activity was determined in a cellular assay of Aβ production. […] Chinese hamster ovary cells that over-express human APP695 with the London and Swedish mutations were seeded in multi-well plates at 10% confluency. Compounds are dissolved in DMSO to concentrations near 1 mM, and diluted into culture media to a final concentration near 4 μM (final 0.4% DMSO). Compounds were diluted serially and applied to cells in multi-well plates 48 h after seeding. Incubation was continued in 5% CO2 at 37° C. for 24 h. Aliquots were removed and assayed for […] content using a sandwich ELISA (BioSource International). Amount of Aβ40 over the range of concentration of compounds, relative to control incubations, were fit to a 4-parameter IC50 model.

[1] = Chinese hamster ovary cells over-expressing human APP695 with London and Swedish mutations, 24 h, Aβ40 sandwich ELISA

`Cc1csc(CN(C)C(=O)c2cccc(C(=O)N[C@@H](Cc3ccccc3)[C@H](O)[C@H]3CCCN3C(=O)OC(C)(C)C)c2)n1` [1-1, (R)-tert-butyl 2-((1S,2S)-1-hydroxy-2-(3-(methyl((4-methylthiazol-2-yl)methyl)carbamoyl)benzamido)-3-phenylpropyl)pyrrolidine-1-carboxylate] gave an IC50 [1] of over 1000 nM.

For `Cc1csc(CN(C)C(=O)c2cccc(C(=O)N[C@@H](Cc3ccccc3)[C@H](O)[C@H]3CCCN3)c2)n1` [1-2, N1-((1R,2S)-1-hydroxy-3-phenyl-1-((R)-pyrrolidin-2-yl)propan-2-yl)-N3-methyl-N3-((4-methylthiazol-2-yl)methyl)isophthalamide], the IC50 [1] was over 1000 nM.

Work on `Cc1coc([C@H]2CCCN2C(=O)c2cccc(C(=O)N[C@@H](Cc3ccccc3)[C@H](O)[C@H]3CCCN3)c2)n1` [1-4, N-((1R,2S)-1-hydroxy-3-phenyl-1-((R)-pyrrolidin-2-yl)propan-2-yl)-3-((R)-2-(4-methyloxazol-2-yl)pyrrolidine-1-carbonyl)benzamide] yielded an IC50 [1] of over 1000 nM.

Work on `C[C@@H](NC(=O)c1cc(C(=O)N[C@@H](Cc2ccccc2)[C@H](O)[C@H]2CCCN2C(=O)OC(C)(C)C)cc(N(C)S(C)(=O)=O)c1)c1ccccc1` [1-5, (R)-tert-butyl 2-((1S,2S)-1-hydroxy-2-(3-(N-methylmethylsulfonamido)-5-((R)-1-phenylethylcarbamoyl)benzamido)-3-phenylpropyl)pyrrolidine-1-carboxylate] yielded an IC50 [1] of over 1000 nM.

`Cc1cc(C(=O)N[C@@H](Cc2ccccc2)[C@H](O)[C@H]2CCCN2C(=O)OC(C)(C)C)cc(C(=O)N2CCC[C@@H]2c2nc(C)co2)c1` [1-6, (R)-tert-butyl 2-((1S,2S)-1-hydroxy-2-(3-methyl-5-((R)-2-(4-methyloxazol-2-yl)pyrrolidine-1-carbonyl)benzamido)-3-phenylpropyl)pyrrolidine-1-carboxylate] was tested, and the IC50 [1] was over 1000 nM.

`Cc1csc(CN(C)C(=O)c2cc(C(=O)N[C@@H](Cc3ccccc3)[C@H](O)[C@H]3CCCN3C(=O)OC(C)(C)C)cc(-c3ncco3)c2)n1` [1-7, (R)-tert-butyl 2-((1S,2S)-1-hydroxy-2-(3-(methyl((4-methylthiazol-2-yl)methyl)carbamoyl)-5-(oxazol-2-yl)benzamido)-3-phenylpropyl)pyrrolidine-1-carboxylate] was tested, and the IC50 [1] was over 1000 nM.

Work on `Cc1cc(C(=O)N[C@@H](Cc2ccccc2)[C@H](O)[C@H]2CCCN2)cc(C(=O)N2CCC[C@@H]2c2nc(C)co2)c1` [1-8, N-((1R,2S)-1-hydroxy-3-phenyl-1-((R)-pyrrolidin-2-yl)propan-2-yl)-3-methyl-5-((R)-2-(4-methyloxazol-2-yl)pyrrolidine-1-carbonyl)benzamide] yielded an IC50 [1] of over 1000 nM.

Work on `Cc1csc(CN(C)C(=O)c2cccc(C(=O)N[C@@H](Cc3ccccc3)[C@H](O)[C@H]3C[C@@H](OCc4ccccc4)CN3)c2)n1` [1-9, N1-((1R,2S)-1-((2R,4R)-4-(benzyloxy)pyrrolidin-2-yl)-1-hydroxy-3-phenylpropan-2-yl)-N3-methyl-N3-((4-methylthiazol-2-yl)methyl)isophthalamide] yielded an IC50 [1] of under 500 nM.

For `Cc1csc(CN(C)C(=O)c2cccc(C(=O)N[C@@H](Cc3ccccc3)[C@H](O)[C@H]3C[C@@H](O)CN3)c2)n1` [1-10, N1-((1R,2S)-1-hydroxy-1-((2R,4R)-4-hydroxypyrrolidin-2-yl)-3-phenylpropan-2-yl)-N3-methyl-N3-((4-methylthiazol-2-yl)methyl)isophthalamide], the IC50 [1] was over 1000 nM.

`C[C@@H](NC(=O)c1cc(C(=O)N[C@@H](Cc2ccccc2)[C@H](O)[C@H]2CCCN2)cc(N(C)S(C)(=O)=O)c1)c1ccccc1` [1-11, N1-((1R,2S)-1-hydroxy-3-phenyl-1-((R)-pyrrolidin-2-yl)propan-2-yl)-5-(N-methylmethylsulfonamido)-N3-((R)-1-phenylethyl)isophthalamide] showed an IC50 [1] of under 500 nM.

`Cc1csc(CN(C)C(=O)c2cc(C(=O)N[C@@H](Cc3ccccc3)[C@H](O)[C@H]3CCCN3)cc(-c3cnco3)c2)n1` [1-12, N1-((1R,2S)-1-hydroxy-3-phenyl-1-((R)-pyrrolidin-2-yl)propan-2-yl)-N3-methyl-N3-((4-methylthiazol-2-yl)methyl)-5-(oxazol-5-yl)isophthalamide] gave an IC50 [1] of over 1000 nM.

In the case of `Cc1csc(CN(C)C(=O)c2cc(C(=O)N[C@@H](Cc3ccccc3)[C@H](O)[C@H]3CCCN3)cc(-n3cccc3)c2)n1` [1-13, N1-((1R,2S)-1-hydroxy-3-phenyl-1-((R)-pyrrolidin-2-yl)propan-2-yl)-N3-methyl-N3-((4-methylthiazol-2-yl)methyl)-5-(1H-pyrrol-1-yl)isophthalamide], the IC50 [1] is reported as 500 to 1000 nM.

`Cc1csc([C@H]2CCCN2C(=O)c2cc(C(=O)N[C@@H](Cc3ccccc3)[C@H](O)[C@H]3CCCN3)cc(C(F)F)c2)n1` [1-14, 3-(difluoromethyl)-N-((1R,2S)-1-hydroxy-3-phenyl-1-((R)-pyrrolidin-2-yl)propan-2-yl)-5-((R)-2-(4-methylthiazol-2-yl)pyrrolidine-1-carbonyl)benzamide] was tested, and the IC50 [1] was under 500 nM.

For `Cc1csc(CN(C)C(=O)c2cc(C(=O)N[C@@H](Cc3ccccc3)[C@H](O)[C@H]3CCCN3)cc(-c3ncco3)c2)n1` [1-15, N1-((1R,2S)-1-hydroxy-3-phenyl-1-((R)-pyrrolidin-2-yl)propan-2-yl)-N3-methyl-N3-((4-methylthiazol-2-yl)methyl)-5-(oxazol-2-yl)isophthalamide], the IC50 [1] was under 500 nM.

`Cc1csc([C@H]2CCCN2C(=O)c2cc(C(=O)N[C@@H](Cc3ccccc3)[C@H](O)[C@H]3CCCN3)cc(-n3cccc3)c2)n1` [1-16, N1-((1R,2S)-1-hydroxy-3-phenyl-1-((R)-pyrrolidin-2-yl)propan-2-yl)-3-((R)-2-(4-methylthiazol-2-yl)pyrrolidine-1-carbonyl)-5-(1H-pyrrol-1-yl)benzamide] showed an IC50 [1] of 500 to 1000 nM.

Compound `Cc1coc([C@H]2CCCN2C(=O)c2cc(C(=O)N[C@@H](Cc3ccccc3)[C@H](O)[C@H]3CCCN3)cc(-c3ncco3)c2)n1` [1-17, N-((1R,2S)-1-hydroxy-3-phenyl-1-((R)-pyrrolidin-2-yl)propan-2-yl)-3-((R)-2-(4-methyloxazol-2-yl)pyrrolidine-1-carbonyl)-5-(oxazol-2-yl)benzamide] has an IC50 [1] of under 500 nM.

Work on `Cc1csc([C@H]2CCCN2C(=O)c2cc(C(=O)N[C@@H](Cc3ccccc3)[C@H](O)[C@H]3CCCN3)cc(-c3ncco3)c2)n1` [1-19, N-((1R,2S)-1-hydroxy-3-phenyl-1-((R)-pyrrolidin-2-yl)propan-2-yl)-3-((R)-2-(4-methylthiazol-2-yl)pyrrolidine-1-carbonyl)-5-(oxazol-2-yl)benzamide] yielded an IC50 [1] of under 500 nM.

`Cc1csc([C@H]2CCCN2C(=O)c2cc(C(=O)N[C@@H](Cc3ccccc3)[C@H](O)[C@H]3CCCN3)cc(-c3cnccn3)c2)n1` [1-20, N-((1R,2S)-1-hydroxy-3-phenyl-1-((R)-pyrrolidin-2-yl)propan-2-yl)-3-((R)-2-(4-methylthiazol-2-yl)pyrrolidine-1-carbonyl)-5-(pyrazin-2-yl)benzamide] showed an IC50 [1] of under 500 nM.

`Cc1coc([C@H]2CCCN2C(=O)c2cc(C(=O)N[C@@H](Cc3ccccc3)[C@H](O)[C@H]3CCCN3)cc(-c3cnccn3)c2)n1` [1-21, N-((1R,2S)-1-hydroxy-3-phenyl-1-((R)-pyrrolidin-2-yl)propan-2-yl)-3-((R)-2-(4-methyloxazol-2-yl)pyrrolidine-1-carbonyl)-5-(pyrazin-2-yl)benzamide] gave an IC50 [1] of under 500 nM.

`Cc1csc([C@H]2CCCN2C(=O)c2cccc(C(=O)N[C@@H](Cc3ccccc3)[C@H](O)[C@H]3C[C@@H](OCc4ccccc4)CN3)c2)n1` [1-22, N-((1R,2S)-1-((2R,4R)-4-(benzyloxy)pyrrolidin-2-yl)-1-hydroxy-3-phenylpropan-2-yl)-3-((R)-2-(4-methylthiazol-2-yl)pyrrolidine-1-carbonyl)benzamide] gave an IC50 [1] of under 500 nM.

`Cc1csc([C@H]2CCCN2C(=O)c2cc(C(=O)N[C@@H](Cc3ccccc3)[C@H](O)[C@H]3CCCN3)cc(N(C)S(C)(=O)=O)c2)n1` [1-23, N-((1R,2S)-1-hydroxy-3-phenyl-1-((R)-pyrrolidin-2-yl)propan-2-yl)-3-(N-methylmethylsulfonamido)-5-((R)-2-(4-methylthiazol-2-yl)pyrrolidine-1-carbonyl)benzamide] gave an IC50 [1] of under 500 nM.

Work on `Cc1coc([C@H]2CCCN2C(=O)c2cc(C(=O)N[C@@H](Cc3ccccc3)[C@H](O)[C@H]3CCCN3)cc(-c3ccccn3)c2)n1` [1-24, N-((1R,2S)-1-hydroxy-3-phenyl-1-((R)-pyrrolidin-2-yl)propan-2-yl)-3-((R)-2-(4-methyloxazol-2-yl)pyrrolidine-1-carbonyl)-5-(pyridin-2-yl)benzamide] yielded an IC50 [1] of under 500 nM.

Work on `Cc1csc([C@H]2CCCN2C(=O)c2cc(C(=O)N[C@@H](Cc3ccccc3)[C@H](O)[C@H]3C[C@@H](OCc4ccccc4)CN3)cc(-n3cccc3)c2)n1` [1-25, N-((1R,2S)-1-((2R,4R)-4-(benzyloxy)pyrrolidin-2-yl)-1-hydroxy-3-phenylpropan-2-yl)-3-((R)-2-(4-methylthiazol-2-yl)pyrrolidine-1-carbonyl)-5-(1H-pyrrol-1-yl)benzamide] yielded an IC50 (CHO cells over-expressing human APP695, Aβ40 ELISA) of 55.6 nM and an IC50 [1] of under 500 nM.

`Cc1csc(CN(C)C(=O)c2cc(C(=O)N[C@@H](Cc3ccccc3)[C@H](O)[C@H]3CCCN3)cc(N(C)S(C)(=O)=O)c2)n1` [1-27, N1-((1R,2S)-1-hydroxy-3-phenyl-1-((R)-pyrrolidin-2-yl)propan-2-yl)-N3-methyl-5-(N-methylmethylsulfonamido)-N3-((4-methylthiazol-2-yl)methyl)isophthalamide] gave an IC50 [1] of under 500 nM.
